From the supplement of paper PMC10307832

Tests used:
Assay in all cases: relative viability (nuclei count vs DMSO), 5 days (fraction); higher = more cells survive
A-427 = system: A-427
In short: (§1)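 Values are medians from duplicate plates. Each reflects relative viability, defined as the nuclei count of treated wells over that of vehicle wells. Lung cancer cell lines in 1536-well plates were pin-tool dosed one day after seeding with one drug alone or with a fixed anchor-drug dose plus five library-drug doses (not always all listed) in √10 steps, then fixed, stained and imaged at 4× after 5 days.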

BEN = system: BEN
In short: as §1

COR-L23 = system: COR-L23
In short: as §1

EKVX = system: EKVX
In short: as §1

EMC-BAC-2 = system: EMC-BAC-2
In short: as §1

EPLC-272H = system: EPLC-272H
In short: as §1

HCC-44 = system: HCC-44
In short: as §1

LK-2 = system: LK-2
In short: as §1

LXF-289 = system: LXF-289
In short: as §1

NCI-H1650 = system: NCI-H1650
In short: as §1

NCI-H1651 = system: NCI-H1651
In short: as §1

NCI-H1915 = system: NCI-H1915
In short: as §1

NCI-H2087 = system: NCI-H2087
In short: as §1

NCI-H2228 = system: NCI-H2228
In short: as §1

NCI-H2347 = system: NCI-H2347
In short: as §1

NCI-H358 = system: NCI-H358
In short: as §1

NCI-H460 = system: NCI-H460
In short: as §1

NCI-H520 = system: NCI-H520
In short: as §1

NCI-H661 = system: NCI-H661
In short: as §1

SW 1573 = system: SW 1573
In short: as §1

COCC1(CO)C(=O)C2CCN1CC2 (stereo not given) [PRIMA-1MET] + C[C@@H](Oc1cc(-c2cnn(C3CCNCC3)c2)cnc1N)c1c(Cl)ccc(F)c1Cl [Crizotinib] (partner 1 µM)
relative viability (A-427; first compound 0.2 µM): 0.935 | relative viability (A-427; first compound 0.6325 µM): 0.721 | relative viability (A-427; first compound 2 µM): 0.769 | relative viability (A-427; first compound 6.325 µM): 0.959 | relative viability (A-427; first compound 20 µM): 0.822 | relative viability (BEN; first compound 0.2 µM): 0.973 | relative viability (BEN; first compound 0.6325 µM): 0.88 | relative viability (BEN; first compound 6.325 µM): 0.974 | relative viability (BEN; first compound 20 µM): 0.735 | relative viability (COR-L23; first compound 0.2 µM): 0.704 | relative viability (COR-L23; first compound 0.6325 µM): 0.612 | relative viability (COR-L23; first compound 2 µM): 0.61 | relative viability (COR-L23; first compound 6.325 µM): 0.565 | relative viability (COR-L23; first compound 20 µM): 0.0228 | relative viability (EKVX; first compound 0.2 µM): 1.11 | relative viability (EKVX; first compound 0.6325 µM): 0.893 | relative viability (EKVX; first compound 2 µM): 0.665 | relative viability (EKVX; first compound 6.325 µM): 0.997 | relative viability (EKVX; first compound 20 µM): 0.891 | relative viability (EMC-BAC-2; first compound 0.2 µM): 0.837 | relative viability (EMC-BAC-2; first compound 0.6325 µM): 0.779 | relative viability (EMC-BAC-2; first compound 2 µM): 0.666 | relative viability (EMC-BAC-2; first compound 6.325 µM): 0.771 | relative viability (EMC-BAC-2; first compound 20 µM): 0.793 | relative viability (EPLC-272H; first compound 0.2 µM): 0.989 | relative viability (EPLC-272H; first compound 0.6325 µM): 0.867 | relative viability (EPLC-272H; first compound 2 µM): 0.816 | relative viability (EPLC-272H; first compound 6.325 µM): 0.851 | relative viability (EPLC-272H; first compound 20 µM): 0.262 | relative viability (HCC-44; first compound 0.2 µM): 0.83 | relative viability (HCC-44; first compound 0.6325 µM): 0.67 | relative viability (HCC-44; first compound 2 µM): 0.867 | relative viability (HCC-44; first compound 6.325 µM): 0.86 | relative viability (HCC-44; first compound 20 µM): 0.807 | relative viability (LK-2; first compound 0.2 µM): 0.221 | relative viability (LK-2; first compound 0.6325 µM): 0.182 | relative viability (LK-2; first compound 2 µM): 0.22 | relative viability (LK-2; first compound 6.325 µM): 0.255 | relative viability (LK-2; first compound 20 µM): 0.18 | relative viability (LXF-289; first compound 0.2 µM): 0.81 | relative viability (LXF-289; first compound 0.6325 µM): 0.869 | relative viability (LXF-289; first compound 2 µM): 0.871 | relative viability (LXF-289; first compound 6.325 µM): 0.815 | relative viability (LXF-289; first compound 20 µM): 0.767 | relative viability (NCI-H1650; first compound 0.2 µM): 1.22 | relative viability (NCI-H1650; first compound 0.6325 µM): 1.02 | relative viability (NCI-H1650; first compound 2 µM): 1 | relative viability (NCI-H1650; first compound 6.325 µM): 0.992 | relative viability (NCI-H1650; first compound 20 µM): 0.659 | relative viability (NCI-H1651; first compound 0.2 µM): 0.991 | relative viability (NCI-H1651; first compound 0.6325 µM): 0.788 | relative viability (NCI-H1651; first compound 2 µM): 0.741 | relative viability (NCI-H1651; first compound 6.325 µM): 0.955 | relative viability (NCI-H1651; first compound 20 µM): 0.888 | relative viability (NCI-H1915; first compound 0.2 µM): 0.975 | relative viability (NCI-H1915; first compound 0.6325 µM): 0.703 | relative viability (NCI-H1915; first compound 2 µM): 0.794 | relative viability (NCI-H1915; first compound 6.325 µM): 0.912 | relative viability (NCI-H1915; first compound 20 µM): 0.852 | relative viability (NCI-H2087; first compound 0.2 µM): 0.949 | relative viability (NCI-H2087; first compound 0.6325 µM): 0.751 | relative viability (NCI-H2087; first compound 2 µM): 0.474 | relative viability (NCI-H2087; first compound 6.325 µM): 0.794 | relative viability (NCI-H2087; first compound 20 µM): 0.805 | relative viability (NCI-H2228; first compound 0.2 µM): 0.414 | relative viability (NCI-H2228; first compound 0.6325 µM): 0.455 | relative viability (NCI-H2228; first compound 2 µM): 0.444 | relative viability (NCI-H2228; first compound 6.325 µM): 0.547 | relative viability (NCI-H2228; first compound 20 µM): 0.0537 | relative viability (NCI-H2347; first compound 0.2 µM): 0.705 | relative viability (NCI-H2347; first compound 0.6325 µM): 0.667 | relative viability (NCI-H2347; first compound 2 µM): 0.295 | relative viability (NCI-H2347; first compound 6.325 µM): 0.771 | relative viability (NCI-H2347; first compound 20 µM): 0.682 | relative viability (NCI-H358; first compound 0.2 µM): 0.688 | relative viability (NCI-H358; first compound 0.6325 µM): 0.59 | relative viability (NCI-H358; first compound 6.325 µM): 0.526 | relative viability (NCI-H358; first compound 20 µM): 0.152 | relative viability (NCI-H460; first compound 0.2 µM): 1.45 | relative viability (NCI-H460; first compound 0.6325 µM): 0.579 | relative viability (NCI-H460; first compound 2 µM): 0.898 | relative viability (NCI-H460; first compound 6.325 µM): 0.0132 | relative viability (NCI-H460; first compound 20 µM): 0.0052 | relative viability (NCI-H520; first compound 0.2 µM): 0.639 | relative viability (NCI-H520; first compound 0.6325 µM): 0.841 | relative viability (NCI-H520; first compound 6.325 µM): 0.659 | relative viability (NCI-H520; first compound 20 µM): 0.135 | relative viability (NCI-H661; first compound 0.2 µM): 1.15 | relative viability (NCI-H661; first compound 6.325 µM): 1.11 | relative viability (NCI-H661; first compound 20 µM): 0.999 | relative viability (SW 1573; first compound 0.2 µM): 0.935 | relative viability (SW 1573; first compound 0.6325 µM): 0.571 | relative viability (SW 1573; first compound 2 µM): 0.843 | relative viability (SW 1573; first compound 6.325 µM): 0.276 | relative viability (SW 1573; first compound 20 µM): 0.0264
